The values below come from article PMC10082216 (Nature Communications, 2023).

In series [1] the test system is mature stage V gametocytes (NF54 strain). In words: microbe, parasite or virus in culture. The class given is cell-based, Plasmodium falciparum. In a few lines: (§1)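 NF54 stage V gametocytes (day 17, density-purified, 0.5% hematocrit) exposed 24 h to compounds at 1.11 µM (primary) or in dose-response. Killing scored by MitoTracker staining; gametocytemia by Sybr Green/CellMask staining, with microsphiltration for stiffening. DMSO 0.05% negative control.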

The conditions of series [2]: cited from earlier work.
In a further series the test system is P.falciparum Dd2. More on the design: method as in previously published reports (Table S1 legend). To be noted: 72 h; results in previous assays; ref previously published reports (Table S1 legend); read-out: 72-h Dd2-SybrGreen PBFS assay IC50; cited from earlier work.
Series [3] concerns mature stage V gametocytes (NF54 strain). In words: High-throughput screening: killing effect by MitoTracker staining, primary screening at 1.11 µM and dose-response analysis. The class given is cell-based, Plasmodium falciparum. To be noted: stage V gametocytes NF54, 24 h, dose-response analysis, N/A = not active in dose-response analysis, read-out: Killing IC50. In a few lines:
as §1

Series [4] in a line: Hit scoring on safety in human subjects and pharmacokinetics. Particulars: for Score (PK): peak plasma concentration vs IC50. The text has this:
Hits from the ReFrame library were further selected based on safety, preferably oral administration (high score if oral), and potential availability for widespread use.

The test system of the next series is human subjects. Particulars: cited from earlier work; for AE (%) / SAE (%): healthy volunteers.
Another series deals with HepG2. Particulars: read-out: Cellular cytotoxicity assay IC50, HepG2; 72 h; second value of cell; ref previously published reports (Table S1 legend); cited from earlier work.
Another series concerns HEK293T. To be noted: read-out: Cellular cytotoxicity assay IC50, HEK293T; 72 h; first value of cell; ref previously published reports (Table S1 legend); cited from earlier work.
The mark [5] stands for this setting: Plasmodium falciparum, NF54, 24 h, read-out: Stiffening IC50 (retention).
[6] abbreviates: Plasmodium falciparum, NF54, 24 h.
Setting [7] is: 90 mg single dose in combination with sofosbuvir 400 mg, ref CTR20160149.
[8] abbreviates: healthy volunteers, 90 mg single dose in combination with sofosbuvir 400 mg, ref CTR20160149.
The mark [9] stands for this setting: 50 mg single dose, ref NCT01937975.
The mark [10] stands for this setting: healthy volunteers, 50 mg single dose, ref NCT01937975.
[11] abbreviates: 100 mg single dose in combination with sofosbuvir 400 mg, ref CTR20160602.
The mark [12] stands for this setting: healthy volunteers, 100 mg single dose in combination with sofosbuvir 400 mg, ref CTR20160602.
The mark [13] stands for this setting: stage V gametocytes NF54, 24 h, dose-response analysis, N/A = not active in dose-response analysis, read-out: Stiffening IC50 (retention).

Read-outs that look alike come from different tables or passages of the source. A value given as a limit tells only on which side of the number the result lay.

For orientation: IC50 means the concentration that inhibits the measured activity by half. Turning to `CS(=O)(=O)c1ccc(-c2cnc(N)c(-c3ccc(C(F)(F)F)nc3)c2)cc1` [MMV-390048], the half-inhibitory concentration (IC50) in series [1] (setting [5]) was 3.5 µM; in series [1] (Plasmodium falciparum, NF54, read-out: IC50 (killing and stiffening, given as range)), 3.5 to 3.9 µM; in the series on P.falciparum Dd2, 0.229 µM; in series [3] (setting [6]) it was 3.86 µM; in series [3], 3.9 µM. In addition, the serum peak concentration in series [2] (humans, highest 120 mg dose, ref 37 (McCarthy et al 2020)) is reported as 2.8 µM. In series [4], the “Score (safety)” value came to 3. In series [4], the “Score (PK)” value is 2 (Peak plasma concentration between 1/3 IC50 and IC50 (Score = 2)).

What is called Cmax is the peak of the concentration-time curve. In the case of `COC(=O)N[C@H](C(=O)N1CCC[C@H]1c1nc(-c2ccc(-c3ccc(-c4c[nH]c([C@@H]5CCCN5C(=O)[C@@H](NC(=O)OC)C(C)C)n4)cc3)cc2)c[nH]1)C(C)C` [Daclatasvir], in series [2] (human, in vivo, 30 mg), the Cmax was 945 nM and the t1/2 was 12.4 h.

Consider `COC(=O)N[C@H](C(=O)N1CC2(CC2)C[C@H]1c1ncc(-c2ccc3c(c2)C(F)(F)c2cc(-c4ccc5nc([C@@H]6[C@H]7CC[C@H](C7)N6C(=O)[C@@H](NC(=O)OC)C(C)C)[nH]c5c4)ccc2-3)[nH]1)C(C)C` [Ledipasvir], for which the “safety in pregnant women” value in the series on human subjects was “can be safely administered to pregnant women”. In the series with human subjects (setting [7]), the “AE (%)” value is 42.9% and the “SAE (%)” value was 0%. In series [2] (setting [8]), the Cmax was 362 nM and the t1/2 was 39.9 h.

`CN(C)Cc1c(C(=O)NCCOc2ccc(C(=O)NO)cc2)oc2ccccc12` [Abexinostat]: the half-inhibitory concentration (IC50) in series [1] (setting [5]) stood at 0.64 µM. The “patients with significant adverse events” value with human subjects (human, in vivo) was “more than 15%”. In series [3] (setting [6]), the half-maximal inhibitory concentration (IC50) was determined as 2 µM. Moreover, in series [4], the “Score (safety)” value amounted to 0 and the “Score (PK)” value turned out to be 0.

On to `COC(=O)N[C@H](C(=O)N1CCC[C@H]1c1nc(-c2ccc3c(c2)O[C@@H](c2ccccc2)n2c-3cc3cc(-c4c[nH]c([C@@H]5CCCN5C(=O)[C@@H](NC(=O)OC)C(C)C)n4)ccc32)c[nH]1)C(C)C` [Elbasvir], for which, in the series with human subjects (setting [9]), the “AE (%)” value is 37.5% and the “SAE (%)” value is 0%. Further, in series [2] (setting [10]), the Cmax is 163 nM and the t1/2 is 25 h.

For the compound `COC(=O)N[C@H](C(=O)N1CCC[C@H]1C(=O)Nc1ccc([C@@H]2CC[C@@H](c3ccc(NC(=O)[C@@H]4CCCN4C(=O)[C@@H](NC(=O)OC)C(C)C)cc3)N2c2ccc(C(C)(C)C)cc2)cc1)C(C)C` [Ombitasvir], the t1/2 in series [2] (human, in vivo) was 21 to 25 h.

Turning to `COC[C@H]1C[C@@H](c2ncc(-c3ccc4c(c3)COc3cc5c(ccc6nc([C@@H]7CC[C@H](C)N7C(=O)[C@@H](NC(=O)OC)C(C)C)[nH]c65)cc3-4)[nH]2)N(C(=O)[C@H](NC(=O)OC)c2ccccc2)C1` [Velpatasvir], in the series on human subjects (setting [11]), the “AE (%)” value was 42.9% and the “SAE (%)” value is listed as 0%. Also, in series [2] (setting [12]), the Cmax is 584 nM and the t1/2 is 16.8 h.

As for `CC(C)[C@H](C(=O)Nc1ccc(C(=O)NO)cc1)c1ccccc1` [AR-42], the IC50 in series [1] (setting [13]) amounted to 1.9 µM. Besides, the “rate of life-threatening adverse events” value in the series on human subjects (human, in vivo) is given as above 25%. Also, in series [3], the concentration for half-maximal inhibition (IC50) amounted to 1.5 µM. For the same compound, in series [4], the “Score (safety)” value stood at 0 and the “Score (PK)” value is listed as 0.

Regarding `CCN(CC)Cc1ccc2cc(COC(=O)Nc3ccc(C(=O)NO)cc3)ccc2c1.Cl.O` [Givinostat hydrochloride], in series [1] (setting [13]), the concentration for half-maximal inhibition (IC50) is 1.4 µM. For the same compound, the “patients with significant adverse events” value with human subjects (human, in vivo) is recorded as “more than 15%”. Moreover, in series [3], the half-inhibitory concentration (IC50) came out at 2.1 µM. In addition, in series [4], the “Score (safety)” value is given as 0 and the “Score (PK)” value was found to be 0.

As for `COc1ccc(-c2nc(N3CCOCC3)c3sc(CN(C)c4ncc(C(=O)NO)cn4)cc3n2)cn1` [CUDC-907], the IC50 was 0.003 µM in the series with HepG2; 1.86 µM in series [1] (setting [5]); 0.03 µM with HEK293T; 0.018 µM in the series on P.falciparum Dd2; 3.32 µM in series [3] (setting [6]). In the series with human subjects (ref NCT02674750 (CUDC-907), NCT02795819 (AR-42)), the “rate of life-threatening adverse events” value was above 25%. In addition, the “Score (safety)” value in series [4] came out at 0. The “Score (PK)” value in series [4] was 0.
